Publication PMC7105820, “Mutant ACVR1 Arrests Glial Cell Differentiation to Drive Tumorigenesis in Pediatric Gliomas” (Cancer Cell, 2020)

Target: T1, ACVR1 (Homo sapiens, UniProt Q04771)
T1 sequence (Q04771 21-509): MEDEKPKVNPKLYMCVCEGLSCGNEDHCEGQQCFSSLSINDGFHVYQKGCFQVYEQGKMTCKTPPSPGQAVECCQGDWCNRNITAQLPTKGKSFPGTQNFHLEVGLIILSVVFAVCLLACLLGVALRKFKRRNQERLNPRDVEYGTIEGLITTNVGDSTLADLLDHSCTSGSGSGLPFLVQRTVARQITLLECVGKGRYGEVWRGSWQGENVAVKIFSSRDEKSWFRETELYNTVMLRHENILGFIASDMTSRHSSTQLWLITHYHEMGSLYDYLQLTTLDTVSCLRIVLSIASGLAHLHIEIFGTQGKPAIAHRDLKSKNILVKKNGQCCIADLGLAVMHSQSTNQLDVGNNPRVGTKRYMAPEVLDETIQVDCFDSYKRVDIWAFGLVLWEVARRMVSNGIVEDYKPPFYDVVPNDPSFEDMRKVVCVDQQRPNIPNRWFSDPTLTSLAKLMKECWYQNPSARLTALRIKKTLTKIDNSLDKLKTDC
Assay: ([…] Å) of the ACVR1-FKBP12 complex; IC50 from cellular NanoBRET target engagement (HEK-293)
Format: cell-based

## CCNc1cc(O)c2c(c1)/C=C/C[C@H](O)[C@H](O)C(=O)/C=C\[C@@H](C)[C@H](C)OC2=O [E6201, (3S,4R,5Z,8S,9S,11E)-14-(ethylamino)-8,9,16-trihydroxy-3,4-dimethyl-3,4,9,19-tetrahydro-1H-2-benzoxacyclotetradecine-1,7 (8H)-dione]
  IC50: ~250 nM
